Experiments:
GluN2B [1] = biological target: T1, GluN2B (Mus musculus, UniProt P35439+Q01097, Q01097:C456Y, species not given); experiment: potentiation of recombinant NMDAR currents in Xenopus oocytes; assay type: cell-based
T1 construct: gene Grin2b; recombinant diheteromeric GluN1/GluN2B-C456Y receptor; with GluN1

GluN2B [2] = biological target: T2, GluN2B (Mus musculus, UniProt P35439+Q01097); experiment: as above; assay type: cell-based
T2 construct: gene Grin2b; recombinant diheteromeric GluN1/GluN2B receptor; with GluN1
T2 sequence (Q01097 27-1482, other chains not shown): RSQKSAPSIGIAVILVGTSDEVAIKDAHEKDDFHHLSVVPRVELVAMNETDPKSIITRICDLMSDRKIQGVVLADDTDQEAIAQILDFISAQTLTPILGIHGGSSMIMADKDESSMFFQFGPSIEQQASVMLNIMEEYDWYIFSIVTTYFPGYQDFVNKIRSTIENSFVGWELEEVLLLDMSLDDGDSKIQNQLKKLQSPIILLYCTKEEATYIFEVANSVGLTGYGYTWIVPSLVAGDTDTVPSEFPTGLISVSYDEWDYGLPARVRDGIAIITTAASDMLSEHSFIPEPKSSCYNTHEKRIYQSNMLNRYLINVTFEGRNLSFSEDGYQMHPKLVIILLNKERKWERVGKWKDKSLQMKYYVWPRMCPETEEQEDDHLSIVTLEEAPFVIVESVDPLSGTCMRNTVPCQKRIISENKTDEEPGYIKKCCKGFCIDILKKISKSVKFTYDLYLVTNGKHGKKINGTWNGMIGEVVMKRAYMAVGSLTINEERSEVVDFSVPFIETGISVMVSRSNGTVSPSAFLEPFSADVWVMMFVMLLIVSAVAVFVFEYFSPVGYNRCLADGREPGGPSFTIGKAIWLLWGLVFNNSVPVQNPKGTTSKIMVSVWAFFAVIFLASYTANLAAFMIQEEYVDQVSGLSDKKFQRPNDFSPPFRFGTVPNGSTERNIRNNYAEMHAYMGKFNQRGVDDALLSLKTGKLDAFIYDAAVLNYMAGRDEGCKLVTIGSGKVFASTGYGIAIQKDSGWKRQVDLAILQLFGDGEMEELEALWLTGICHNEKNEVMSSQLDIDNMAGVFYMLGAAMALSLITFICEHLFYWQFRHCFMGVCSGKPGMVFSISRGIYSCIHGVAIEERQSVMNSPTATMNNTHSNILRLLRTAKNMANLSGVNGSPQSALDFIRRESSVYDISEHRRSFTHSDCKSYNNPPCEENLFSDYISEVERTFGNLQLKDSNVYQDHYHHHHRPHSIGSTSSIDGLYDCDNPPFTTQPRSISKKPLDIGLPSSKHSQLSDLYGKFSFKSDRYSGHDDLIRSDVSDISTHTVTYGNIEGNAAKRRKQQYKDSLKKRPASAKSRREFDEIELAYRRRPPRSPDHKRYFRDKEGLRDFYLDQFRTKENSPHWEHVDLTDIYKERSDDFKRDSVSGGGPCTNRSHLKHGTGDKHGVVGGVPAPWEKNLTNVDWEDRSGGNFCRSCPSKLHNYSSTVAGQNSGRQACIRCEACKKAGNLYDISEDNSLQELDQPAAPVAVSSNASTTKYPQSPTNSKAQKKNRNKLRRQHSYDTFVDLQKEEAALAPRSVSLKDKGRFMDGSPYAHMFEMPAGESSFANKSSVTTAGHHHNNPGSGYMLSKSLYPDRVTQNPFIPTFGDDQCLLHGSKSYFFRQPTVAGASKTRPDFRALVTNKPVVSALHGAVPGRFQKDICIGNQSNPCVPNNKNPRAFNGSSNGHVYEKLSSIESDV

T1 sequence (Q01097 27-1482 C456Y, other chains not shown): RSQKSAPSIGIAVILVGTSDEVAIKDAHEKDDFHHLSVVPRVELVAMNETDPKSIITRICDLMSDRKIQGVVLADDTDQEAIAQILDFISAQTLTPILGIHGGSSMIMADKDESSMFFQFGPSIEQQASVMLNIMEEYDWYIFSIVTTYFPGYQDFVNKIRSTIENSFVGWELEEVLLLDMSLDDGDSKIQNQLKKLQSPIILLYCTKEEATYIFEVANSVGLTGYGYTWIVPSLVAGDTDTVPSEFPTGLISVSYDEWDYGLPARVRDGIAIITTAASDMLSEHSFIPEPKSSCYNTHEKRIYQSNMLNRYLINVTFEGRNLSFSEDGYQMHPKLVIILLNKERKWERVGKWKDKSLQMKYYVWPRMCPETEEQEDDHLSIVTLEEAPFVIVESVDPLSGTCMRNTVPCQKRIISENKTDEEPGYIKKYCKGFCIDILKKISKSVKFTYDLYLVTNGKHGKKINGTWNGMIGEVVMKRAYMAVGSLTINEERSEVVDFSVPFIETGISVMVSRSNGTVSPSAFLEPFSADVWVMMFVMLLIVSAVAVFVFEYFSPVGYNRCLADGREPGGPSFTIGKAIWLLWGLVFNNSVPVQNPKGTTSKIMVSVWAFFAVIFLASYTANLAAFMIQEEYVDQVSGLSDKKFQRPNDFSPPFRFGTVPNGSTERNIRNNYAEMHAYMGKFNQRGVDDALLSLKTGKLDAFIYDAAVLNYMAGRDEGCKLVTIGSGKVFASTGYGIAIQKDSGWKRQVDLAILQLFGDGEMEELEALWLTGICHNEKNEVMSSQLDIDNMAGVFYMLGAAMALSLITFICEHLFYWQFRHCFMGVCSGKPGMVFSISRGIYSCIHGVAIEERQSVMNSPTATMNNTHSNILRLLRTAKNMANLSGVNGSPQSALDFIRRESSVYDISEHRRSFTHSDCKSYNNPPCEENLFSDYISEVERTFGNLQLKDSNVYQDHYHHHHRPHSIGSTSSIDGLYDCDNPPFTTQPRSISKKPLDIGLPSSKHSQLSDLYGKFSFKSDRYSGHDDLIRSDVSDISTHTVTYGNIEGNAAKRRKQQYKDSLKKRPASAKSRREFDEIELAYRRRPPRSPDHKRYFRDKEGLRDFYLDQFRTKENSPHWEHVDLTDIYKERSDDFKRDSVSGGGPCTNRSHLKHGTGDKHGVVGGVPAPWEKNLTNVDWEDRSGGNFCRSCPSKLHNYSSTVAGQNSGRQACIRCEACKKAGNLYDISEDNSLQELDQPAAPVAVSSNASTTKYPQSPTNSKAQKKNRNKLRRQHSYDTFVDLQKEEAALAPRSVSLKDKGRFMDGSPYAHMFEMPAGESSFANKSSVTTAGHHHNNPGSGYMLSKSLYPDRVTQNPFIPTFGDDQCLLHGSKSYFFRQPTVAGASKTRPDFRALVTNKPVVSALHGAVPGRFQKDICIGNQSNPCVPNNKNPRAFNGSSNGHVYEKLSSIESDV

NCCCNCCCCNCCCN [spermine]
potentiation of recombinant NMDAR currents in Xenopus oocytes (GluN2B [1]): 2.83 spermine potentiation | potentiation of recombinant NMDAR currents in Xenopus oocytes (GluN2B [2]): 9.45 spermine potentiation
